Laboratory results: ChEMBL document CHEMBL3507680, “University of Dundee, Gates Library screen for HepG2 cell viability”

experiment: Human HepG2 cell viability assay in 384 well format; assay type: toxicity, cell-based; design: dose 125 nL, time 70.5 hour; concentration not given beside the values; conditions: HepG2 cells, read-out: Inhibition

Row | Compound | cytotoxicity at 70.5 h
1 | CCn1cc(Cn2cc(-c3cccc(C(C)N(C)C)c3)nn2)cn1 (centres undefined) | -6.09%
2 | CC(C)Nc1ncnc2c1CCN(Cc1nccn1C)CC2 | 8.85%
3 | O=C(NCCC(=O)N1CCCC1)c1nn(-c2ccccc2F)cc1O | 35.9%
4 | CCC1=N[C@@]2(CC[C@@H]3CN(Cc4ccccc4F)C[C@@H]32)C(=O)N1CC | -6.42%
5 | CN1C(=O)C(c2cccnc2)CC12CCN(C(=O)c1cccn1C)CC2 (centres undefined) | -10.3%
6 | Cn1cc(-c2nc(CN3CCn4c(nnc4C4CC4)C3)cs2)cn1 | -4.85%
7 | CN1CCCN(C(=O)NCCOc2ccc3c(c2)OCO3)CC1 | -2.86%
8 | CN1C[C@]2(CC[C@@H](C(=O)O)CC2)Oc2ccccc2C1=O | -6.54%
9 | O=C(c1cocn1)N1CCC[C@]2(C[C@@H](OCC3CC3)CO2)C1 | -7.29%
10 | c1cc(CNCC2Cn3nncc3CO2)cs1 (centres undefined) | -6.68%
11 | Cc1ccsc1C(=O)N1CCC(c2nccn2Cc2ccncc2)CC1 | -9.49%
12 | CCN1C(=O)CC[C@@H]2[C@H]1CCN2S(=O)(=O)c1cccs1 | -4.53%
13 | Cc1cn2c(n1)CCC(NC(=O)CCOc1ccccc1F)C2 (centres undefined) | -5.57%
14 | O=C1NC(c2cnc(C3CCC3)s2)Nc2ccccc21 (centres undefined) | -9.55%
15 | Cc1ncc(C(=O)NCCNC(=O)c2ccccc2)s1 | -6.97%
16 | CC(C)(C)n1ncc2c1NC(=O)CC2c1cccc(F)c1 (centres undefined) | 3.13%
17 | CC(C)C(C(=O)N1CCN(c2nccs2)CC1)n1cncn1 (centres undefined) | 0.606%
18 | CCS(=O)(=O)CCSc1ccc(Cl)cc1 | 27%
19 | Cc1nn(C)c(C)c1C1COCCN1C(=O)c1cnc(N)c(Cl)c1 (centres undefined) | -3.52%
20 | Cc1cccc(N2CCN(C(=O)CNCCn3cc(C)cn3)CC2)c1 | 45%
21 | Cn1nccc1C(=O)N1CCOC(Cc2ccc(F)cc2)C1 (centres undefined) | -3.53%
22 | COc1ccc(CCN2C(=O)O[C@@H]3CN(C4CCOCC4)C[C@@H]32)cc1 | 5.89%
23 | COc1cc(OC)cc(C2SCC(=O)Nc3ccsc32)c1 (centres undefined) | -4.19%

Row | Compound | cytotoxicity at 70.5 h
24 | Cn1nc(C(=O)N2CC(Oc3nc4c(Cl)cccc4s3)C2)ccc1=O | -8.11%
25 | CN(C)C(=O)C1SCCc2ccccc21 (centres undefined) | -6.79%
26 | Cc1nsc(NC(=O)N2CCCC2C)n1 (centres undefined) | 2.78%
27 | CN1CCN(C2CCN(CCOc3ccccc3)CC2)C1=O | -14.7%
28 | NC(=O)C1CCN(C(=O)CCCc2nnc(-c3ccccc3)o2)C1 (centres undefined) | -0.453%
29 | CC(=O)N1CCCC(c2cccc(-n3ccnc3)n2)C1 (centres undefined) | -7.9%
30 | N#Cc1c(C2CC2)cc(-c2ccc(F)c(F)c2)nc1N | -3.46%
31 | CC(C)N1CC[C@@H]2[C@H](COCC3CC3)CN(C)C(=O)[C@@H]2CC1 | 4.19%
32 | CCC(=O)N1CCCc2c(cnn2C)C1 | 23.9%
33 | O=C(CN1CC(c2nc(Cc3ccccc3)no2)C1)NCC1CCCO1 (centres undefined) | -0.885%
34 | COc1ccc(S(=O)(=O)NCc2cccnc2N(C)C)cc1F | 40.3%
35 | CCn1cc(-c2cc(C(F)(F)F)nn2CCC#N)cn1 | -9.49%
36 | Cc1noc(C)c1CCC(=O)N1CCCN(CC(N)=O)CC1 | -16.1%
37 | Cc1ccc(F)c(S(=O)(=O)NCc2cccc(N3CCOC3=O)c2)c1 | -4.03%
38 | CCN1CCN(C(=O)c2cccc(CN3CCOCC3)c2)CC1 | -5.52%
39 | O=C(CCNC(=O)C1CCCC1)NCc1ccccc1Cn1cncn1 | -7.76%
40 | Cc1ccc(S(=O)(=O)NC(=O)c2c(C)noc2C(C)C)cc1C | 0.282%
41 | CC(C)c1noc(C(C)N2CCN(CCc3ccncc3)CC2)n1 (centres undefined) | -16.3%
42 | Cc1nc(C(C)C)sc1C(=O)NCCNc1ncccn1 | -10.9%
43 | CCN(c1ccc(C(=O)NCCCN2CCCC2)cc1)S(=O)(=O)CC | -8.8%
44 | c1cnc(N2CCC3(CCCN(Cc4ccncc4)C3)CC2)nc1 | 18.3%
45 | Cc1sc(Br)cc1S(=O)(=O)NCc1ccccn1 | -18.2%
46 | CC(=O)N1[C@@H](C(=O)NCC2CC2)C[C@@H]2CN(Cc3ccco3)C[C@@H]21 | 0.192%

Row | Compound | cytotoxicity at 70.5 h
47 | CN(Cc1cccc(OCCO)c1)Cc1cccc2ncccc12 | 19.3%
48 | CC(C)(C)OC(=O)NC(C)(C)c1noc(CSc2ccccn2)n1 | -1.21%
49 | Cc1ccc(NC(=O)C(C)n2ccc(C(F)(F)F)n2)nc1 (centres undefined) | 1.64%
50 | NS(=O)(=O)c1ccc(F)c(C(=O)NCCSc2ccccn2)c1 | -4.06%
51 | O=C(NCc1nnc2n1CCC2)c1cn(-c2ccccc2)nn1 | -5.59%
52 | O=C(c1ccc2[nH]ccc2c1)N1CCCCC1c1nc[nH]n1 (centres undefined) | -5.67%
53 | Cn1cc(NC(=O)N2CCC(c3ccccc3)CC2)ccc1=O | -3.71%
54 | CC1CN(CCOc2cccc(C#N)c2)CCN1Cc1nccn1C (centres undefined) | -3.4%
55 | O=C(c1ccc(=O)[nH]c1)N1CCCC2(C=Cc3ccccc3O2)CC1 (centres undefined) | -3.22%
56 | Cc1cc(N2CCC(N(C)C(=O)c3sccc3C)CC2)nc(C)n1 | -4.75%
57 | CS(=O)(=O)NC1CCN(CCc2ccccc2)CC1 | -9.51%
58 | COc1ccc(C)cc1CNCc1ccc(-n2nc(C)cc2C)nc1 | 5.93%
59 | O=c1[nH]c(NC2CCCC2)nc2nccc(-c3cccs3)c12 | -4.19%
60 | CCC(=O)Nc1ccc(F)c(S(=O)(=O)NC(C)(C)C)c1 | 8.07%
61 | O=C(c1ccco1)N1C[C@H]2CCCN(CC3CCOCC3)[C@H]2C1 | -7.8%
62 | CC(C)CC(=O)N1CCCC1c1ccsc1 (centres undefined) | -10.6%
63 | CCOCc1ccc(CNC2=NCCCN2)cc1 | -2.49%
64 | Fc1ccccc1CN1CCC[C@H](Cn2nnc(-c3cccs3)n2)C1 | -0.999%
65 | O=C(CC1CCN(CCc2ccccc2)CC1)N1CCCOCC1 | -1.73%
66 | CN1CC2(CCCN(C(=O)c3cnc4ccc(F)cc4c3O)C2)OC1=O (centres undefined) | -6.43%
67 | Cn1ncc2c1CCCN(C(=O)C1CCC1)C2 | -2.82%
68 | Cc1cc(C)n(CCN2CCOC(CNc3cccnn3)C2)n1 (centres undefined) | -4.33%
69 | CCc1nc(C2CCCN2CCCS(=O)(=O)c2ccccc2)no1 (centres undefined) | -7.66%

Row | Compound | cytotoxicity at 70.5 h
70 | CC(=O)NC[C@H]1C[C@@H]2CCN1C[C@@H]2c1cc(-c2cccs2)nn1C | -10.2%
71 | O=C(c1ccc(-n2cnnn2)cc1)N1CCCC(n2ccnc2)C1 (centres undefined) | -6.98%
72 | Cn1ccc(C(=O)N2CCCC2c2ccc3c(c2)OCCO3)cc1=O (centres undefined) | -2.74%
73 | Cc1cc2ccccc2n1CCC(=O)N1CCCC2(CC1)CNC(=O)O2 (centres undefined) | -7.42%
74 | Cc1ccc(CN2CCC3(CC(=O)N(c4ccc5c(c4)OCO5)C3)C2)o1 (centres undefined) | -6.86%
75 | CN(CC1CCCCO1)c1nc(-c2cccnc2)nc2c1CCNC2 (centres undefined) | -17.5%
76 | CCOc1cc(CNC(=O)NCc2nc(C)c(C)s2)ccn1 | -5.57%
77 | CCC1CN(C)c2ccccc2CN1C(=O)CCn1cncn1 (centres undefined) | -7.82%
78 | Cc1c(NCC(C)(C)C)cccc1C(=O)NCc1ncnn1C | 14.6%
79 | Cc1nnc2n1CCN(C(=O)c1cnc3c(cnn3C(C)C)c1)C2 | 25.5%
80 | Cc1cc(C(=O)N2CCN(c3nc4ccccc4s3)CC2)no1 | 48.3%
81 | COc1cc(I)c(Cl)cc1C(=O)N(C)CC(=O)NC(C)(C)C | -23.4%
82 | OC(CN1CCOCC1)c1cc(Cl)ccc1Cl (centres undefined) | 9.36%
83 | COc1ccc(COCC(O)CNC(=O)c2cccc(OC)c2)cc1 (centres undefined) | -0.933%
84 | O=C(CSC1CCc2ccccc2NC1=O)NCc1ccccc1 (centres undefined) | 6.38%
85 | Cc1cnc(N)c(C(=O)C2CCN(C(=O)c3ccccc3F)CC2)c1 | -11.6%
86 | Cc1ccc(C(=O)N(C)Cc2c(C)noc2C)c(=O)[nH]1 | -0.278%
87 | Cc1nc(CNC(=O)N2CCCC(c3ncc[nH]3)C2)sc1C (centres undefined) | -5.05%
88 | Cn1c(C(=O)Nc2nc[nH]n2)cc2ccccc21 | 10.4%
89 | COC(=O)c1ncccc1N1CCC(C(O)c2ccccc2)CC1 (centres undefined) | -6.81%
90 | CCCOCC1CCN(C(=O)c2cnc(C)nc2O)C1 (centres undefined) | -2.13%
91 | Cc1cccc(C(=O)N2CCSCC2)c1NC(=O)c1ccsc1 | -8.36%
92 | Cc1ccc(C(=O)N2CC[C@@H]3[C@H]2CCC(=O)N3CC2CC2)o1 | -0.589%

Row | Compound | cytotoxicity at 70.5 h
93 | Cc1nc(C)n(CC2CCCN(CCc3ccccn3)C2)n1 (centres undefined) | 28.4%
94 | Cc1cnn(CC2CN(CC(=O)N(C)Cc3cnn(C)c3)CCO2)c1 (centres undefined) | -7.34%
95 | CCCc1cc(CN(C)C2CSCCSC2)n[nH]1 | -6.5%
96 | CC(C)c1nnc2n1CC(CNCc1nc3ccccc3o1)CC2 (centres undefined) | 2.4%
97 | Cc1cc(CNC(=O)CC2CN(C(=O)OC(C)(C)C)C2)ccc1F | -9.79%
98 | Cc1nc2scc(C)n2c1CNc1ccc(C(=O)O)cc1 | 19.2%
99 | CC(C)C1CCC(N2CCN(CCS(C)(=O)=O)CC2)CC1 (centres undefined) | -4.3%
100 | CCC1CN(C(=O)c2ccc(=O)[nH]c2)CCC(=O)N1Cc1ccccc1 (centres undefined) | -2.4%
101 | O=C(NC1CC2(CCN(CCO)CC2)Oc2ccccc21)c1csnn1 (centres undefined) | -0.338%
102 | CC(C)N1CCCC(C(=O)NC(C)(C)c2nnc(N)s2)C1 (centres undefined) | -12.2%
103 | Cn1nnc2c1CCN(S(C)(=O)=O)C2COCC1CC1 (centres undefined) | 0.405%
104 | CN(C)c1ccc(CN(CCCn2ccnc2)Cc2c[nH]cn2)cc1 | -13.5%
105 | COCC(=O)N[C@H](C(=O)NC(C)c1cc(C)ccc1C)C(C)C (some centres undefined) | -0.855%
106 | N#Cc1ccc(F)c(CN2CCNC(=O)C2c2cccs2)c1 (centres undefined) | 18%
107 | Cc1ccc(CNC(=O)c2nn(C)c3c2CS(=O)(=O)CC3)o1 | -2.5%
108 | CC(C)N1CC(C(=O)NCc2ccc(S(=O)(=O)N(C)C)cc2)CC1=O (centres undefined) | -7.28%
109 | c1ncn(CC2CN(Cc3nc(C4CC4)no3)CCO2)n1 (centres undefined) | 17.2%
110 | c1cnnc(N2CCCC(NCc3nc(-c4cccs4)no3)C2)c1 (centres undefined) | -6.61%
111 | COc1ccc(-c2n[nH]cc2CN(C)Cc2nnc(C)o2)c(F)c1 | 1.72%
112 | O=C(CCC1CCN(C(=O)c2csnn2)CC1)NCc1cccc(Cl)c1 | 7.85%
113 | Cc1cccc(CN2C[C@@H]3OCCN(C)[C@@H]3C2)n1 | -11.9%
114 | O=C(CCCn1cncn1)N1CCC2(CCCN(C3CCCC3)C2=O)C1 (centres undefined) | -4.98%
